# Results: patent US11559482B2, “Biodegradable polyethylene glycol based water-insoluble hydrogels” (Ascendis Pharma A/S, priority 2009, dated 2023)
# Assay: Injectability: force versus flow using a 30 G needle
# Type: physicochemical
# Settings: 1 mL syringe
# Procedure: 5 mL insulin-linker-hydrogel prodrug 29 (bead size distribution from 32-75 μm, 18 mg insulin/ml insulin-linker-hydrogel prodrug suspension) was buffer exchanged into pH 5.0 succinic acid/tris (10 mM, 40 g/L mannitol; 10 g/L trehalose dihydrate; 0.05% TWEEN-20). The insulin-linker-hydrogel prodrug suspension was filled into a 1 mL syringe (length 57 mm) via a 20 G needle. The 20 G needle was replaced by a 30 G needle and placed into the syringe mounting (Aqua Computer GmbH&Co. KG) and the measurement was started with a piston velocity of 172 mm/min (equals 50 μL/s) (Force test stand: Multitest 1-d, Data recording software: EvaluatEmperor Lite, Version 1.16-015, Forge Gauge: BFG 200 N (all Mecmesin Ltd., UK). Experiments with increasing piston velocities shown in the table below were carried out with a new insulin-linker-hydrogel prodrug sample. The experiments with water and ethylene glycol were carried out accordingly. For all of the experiments the same 30 G needle was used.
compound,measurement,setting,value
OCCO [ethylene glycol],Force,"flow 6 sec/mL, 167 μL/sec, piston velocity 573 mm/min",83 N
same,Force,"flow 8 sec/mL, 125 μL/sec, piston velocity 430 mm/min",62 N
same,Force,"flow 10 sec/mL, 100 μL/sec, piston velocity 344 mm/min",51 N
same,Force,"flow 15 sec/mL, 67 μL/sec, piston velocity 229 mm/min",35 N
same,Force,"flow 20 sec/mL, 50 μL/sec, piston velocity 172 mm/min",27 N
